Reference: patent US8592383B2, “Cycloalkyl-fused tetrahydroquinolines as CRTH2 receptor modulators” (Merck Sharp & Dohme Corp., priority 2011, dated 2013)

These compounds were tested against T1, hCRTH2 (Homo sapiens, UniProt Q9Y5Y4). Conditions: Radioligand Binding Assay B; 0.7 nM [3H]PGD2, HEK-hCRTH2 membranes.
T1 sequence (Q9Y5Y4 1-395): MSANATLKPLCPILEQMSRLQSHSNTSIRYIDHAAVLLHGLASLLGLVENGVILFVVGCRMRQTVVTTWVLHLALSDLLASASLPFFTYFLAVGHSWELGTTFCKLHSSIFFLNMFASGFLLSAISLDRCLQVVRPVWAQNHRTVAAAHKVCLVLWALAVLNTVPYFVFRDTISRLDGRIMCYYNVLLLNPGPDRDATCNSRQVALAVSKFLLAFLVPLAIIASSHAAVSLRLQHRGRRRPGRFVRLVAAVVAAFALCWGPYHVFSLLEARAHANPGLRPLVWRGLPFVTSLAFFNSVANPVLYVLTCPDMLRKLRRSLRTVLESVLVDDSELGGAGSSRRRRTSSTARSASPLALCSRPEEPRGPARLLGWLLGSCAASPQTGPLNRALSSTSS
Parameters: expressed in transfected cells; host or cells: HEK (human embryonic kidney) cells expressing hCRTH2
Protocol: The filters were then washed with 4 mL of the same buffer and residual radioligand bound to the filter was determined by liquid scintillation counting following equilibration in 25 μl Ultima Gold F™ (Unifilter) (Packard).

Ki, 123 nM:
CCN(C(=O)CCC(=O)O)C1c2ccccc2N(C(=O)c2cccnc2)C2CCCC12 (racemic) [13E, 4-{ethyl[cis,cis-4-(pyridin-3-ylcarbonyl)-2,3,3a,4,9,9a-hexahydro-1H-cyclopenta[b]quinolin-9-yl]amino}-4-oxobutanoic acid]

Ki, 9.9 nM:
O=C(O)CCC(=O)N(C1CC1)C1c2ccccc2N(C(=O)c2ccsc2)C2CCCC21 (racemic) [14E, 4-{cyclopropyl[cis,cis-4-(thiophen-3-ylcarbonyl)-2,3,3a,4,9,9a-hexahydro-1H-cyclopenta[b]quinolin-9-yl]amino}-4-oxobutanoic acid]

Same assay, conditions: Radioligand Binding Assay B; Table B, rated A-D

Ki, 20.1 to 200 nM:
4-{cyclopropyl[cis,cis-6-fluoro-4- (phenylcarbonyl)-2,3,3a,4,9,9a- hexahydro-1H- cyclopenta[b]quinolin-9-yl]amino}- 4-oxobutanoic acid [16D]
COC(=O)CCC(=O)N(c1ccccc1)C1c2ccccc2N(C(=O)c2cccnc2)C2CCCC21 (racemic) [12B, methyl 4-oxo-4-{phenyl[cis, cis-4-(pyridin-3-ylcarbonyl)-2,3,3a,4,9,9a-hexahydro-1H-cyclopenta[b]quinolin-9-yl]amino}butanoate]
CCN(C(=O)CCC(=O)O)C1c2ccccc2N(C(=O)c2cccnc2)C2CCCC12 (racemic) [13E, 4-{ethyl[cis,cis-4-(pyridin-3-ylcarbonyl)-2,3,3a,4,9,9a-hexahydro-1H-cyclopenta[b]quinolin-9-yl]amino}-4-oxobutanoic acid]

Ki, 5.1 to 20 nM:
O=C(O)CCC(=O)N(c1ccccc1)C1c2ccccc2N(C(=O)OCc2ccccc2)C2CCCC21 (racemic) [12C, 4-[{cis,cis-4-[(benzyloxy)carbonyl]-2,3,3a,4,9,9a-hexahydro-1H-cyclopenta[b]quinolin-9-yl}(phenyl)amino]-4-oxobutanoic acid]
O=C(O)CCC(=O)N(c1ccccc1)C1c2ccccc2N(C(=O)c2cccnc2)C2CCCC21 (racemic) [12D, 4-oxo-4-{phenyl[cis,cis-4-(pyridin-3-ylcarbonyl)-2,3,3a,4,9,9a-hexahydro-1H-cyclopenta[b]quinolin-9-yl]amino}butanoic acid]
O=C(O)CCC(=O)N(c1ccccc1)C1c2ccccc2N(C(=O)c2ccccc2)C2CCCC21 (racemic) [12E, 4-oxo-4-{phenyl[cis,cis-4-(phenylcarbonyl)-2,3,3a,4,9,9a-hexahydro-1H-cyclopenta[b]quinolin-9-yl]amino}butanoic acid]
CCN(C(=O)CCC(=O)O)C1c2ccccc2N(C(=O)c2ccc(OC(F)(F)F)cc2)C2CCCC12 (racemic) [13C, 4-{ethyl [cis,cis-4-{[4-(trifluoromethoxy)phenyl]carbonyl}-2,3,3a,4,9,9a-hexahydro-1H-cyclopenta[b]quinolin-9-yl]amino}-4-oxobutanoic acid]
CCN(C(=O)CCC(=O)O)C1c2ccccc2N(C(=O)c2ccccc2)C2CCCC12 (racemic) [13D, 4-{ethyl[cis,cis-4-(phenylcarbonyl)-2,3,3a,4,9,9a-hexahydro-1H-cyclopenta[b]quinolin-9-yl]amino}-4-oxobutanoic acid]
O=C(O)CCC(=O)N(C1CC1)C1c2ccccc2N(C(=O)c2ccc(OC(F)(F)F)cc2)C2CCCC21 (racemic) [14C, 4-{cyclopropyl[cis,cis-4-{[4-(trifluoromethoxy)phenyl]carbon-yl}-2,3,3a,4,9,9a-hexahydro-1H-cyclopenta[b]quinolin-9-yl]amino}-4-oxobutanoic acid]
Cn1c(C(=O)N2c3ccccc3C(N(C(=O)CCC(=O)O)C3CC3)C3CCCC32)cc2ccccc21 (racemic) [14D, 4-(cyclopropyl{cis,cis-4-[(1-methyl-1H-indol-2-yl)carbonyl]-2,3,3a,4,9,9a-hexahydro-1H-cyclopenta[b]quinolin-9-yl}amino)-4-oxobutanoic acid]
O=C(O)CCC(=O)N(C1CC1)C1c2ccccc2N(C(=O)c2ccsc2)C2CCCC21 (racemic) [14E, 4-{cyclopropyl[cis,cis-4-(thiophen-3-ylcarbonyl)-2,3,3a,4,9,9a-hexahydro-1H-cyclopenta[b]quinolin-9-yl]amino}-4-oxobutanoic acid]
O=C(O)CCC(=O)N(C1CC1)C1c2ccccc2N(C(=O)c2ccc(Br)cc2)C2CCCC21 (racemic) [14F, 4-[{cis,cis-4-[(4-bromophenyl)carbonyl]-2,3,3a,4,9,9a-hexahydro-1H-cyclopenta[b]quinolin-9-yl}(cyclopropyl)amino]-4-oxobutanoic acid]
